Data reported in patent US20050113450A1, “Antibacterial agents” (priority 2002, published 2005).
Values after ≈ are worked out from the molar mass of the structure shown.

System: SA 9218
Assay: MIC by standard agar dilution method
Type: cell-based
Settings: Mueller Hinton agar, 10^4 to 10^5 cells per spot, incubated overnight at 35° C., lowest concentration that inhibits visible growth
In short: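 MIC read after overnight 35 °C incubation as lowest drug level preventing visible growth. Inoculum of roughly 10^4–10^5 cells per spot (0.5 McFarland, 1:20 in TSB) applied to Mueller Hinton agar containing serial 2-fold compound dilutions.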

Row | Structure (SMILES) | MIC [µg/mL] | SA 9218 MIC [µg/mL]
1 | CS(=O)(=O)c1cccc(C(=O)c2ccc(C(=O)Nc3ccc(Cl)cc3C(=O)O)cc2)c1 | 32 (≈ 69.9 µM) | –
2 | Cc1ncc([N+](=O)[O-])n1CCOc1ccc(C(=O)Nc2ccc(Br)cc2C(=O)O)cc1 | 128 (≈ 262 µM) | –
3 | Cc1ccc(S(=O)(=O)N2CCN(c3ccc(Cl)cc3)CC2)cc1C(=O)Nc1ccc(Br)cc1C(=O)O | 32 (≈ 54 µM) | –
4 | O=C(Nc1ccc(Cl)cc1C(=O)O)c1cccc(C(=NO)c2ccco2)c1 [drawing 1086] | – | 2
5 | O=C(Nc1ccc(Cl)cc1C(=O)O)c1cccc(I)c1 | 8 (≈ 19.9 µM) | –
6 | Cc1ccc(C(=O)Nc2ccc(Br)cc2C(=O)O)cc1S(=O)(=O)NC1Cc2ccccc2C1 | 0.25 (≈ 0.472 µM) | –
7 | O=C(Nc1ccc(Br)cc1C(=O)O)c1ccc(OCCSc2nc3ccccc3s2)cc1 | 64 (≈ 121 µM) | –
8 | O=Cc1cccc(C(=O)Nc2ccc(Br)cc2C(=O)O)c1 | > 128 | –

Other lines, results leading:

Row | MIC [µg/mL] | SA 9218 MIC [µg/mL] | Structure (SMILES)
9 | 4 (≈ 7.99 µM) | – | O=C(Nc1ccc(Br)cc1C(=O)O)c1ccc(S(=O)(=O)n2cnc3ccccc32)cc1 [PNU-283371]
10 | 0.125 (≈ 0.27 µM) | – | N#Cc1ccc(NC(=O)c2cccc(S(=O)(=O)n3ccc4cc(F)ccc43)c2)c(C(=O)O)c1 [PHA-568461]
11 | 16 (≈ 37.4 µM) | – | CC1CCCN(S(=O)(=O)c2ccc(C(=O)Nc3ccc(C#N)cc3C(=O)O)cc2)C1 (stereo not drawn) [PHA-571241]
12 | 16 (≈ 36.5 µM) | – | COC(=O)c1cccc(C(=O)c2ccc(C(=O)Nc3ccc(Cl)cc3C(=O)O)cc2)c1 [PHA-656883]
